From patent US20260166162A1, “CARBON CHAIN SUBSTANCE FOR REGULATING TRANSMEMBRANE TRANSPORT AND FLUIDITY OF CELL MEMBRANES, AND PREPARATION AND USE THEREOF” (priority 2022, published 2026)
Like-named read-outs stand apart in the source and are kept apart here.

Tests used:
Format in all cases: cell-based
[1] = test system: influenza pseudovirus H7N9-Fluc; assay: microbe, parasite or virus in culture; settings: n=3; for inhibition at 0.002 µM / inhibition at 0.005 µM / inhibition at 0.01 µM / inhibition at 0.05 µM / inhibition at 0.1 µM / inhibition at 1 µM / inhibition at 10 µM / inhibition at 50 µM / inhibition at 100 µM: Pseudovirus, H7N9, read-out: Inhibition rate (%)
293T cells = assay: Cellular phagocytosis of DiD-loaded lipid vesicles (nano-drugs) by 293T cells (Example II-51, Table II-29); settings: 293T cells pretreated 4 h, DiD lipid vesicles 2 h, n=3, untreated control 226.46 ± 1.26
HIV pseudovirus (18A-41) = settings: 293T cells pretreated 4 h, n=3

Row | Compound | Inhibition rate (%) ([1]; 2 nM) | Inhibition rate (%) ([1]; 5 nM) | Inhibition rate (%) ([1]; 10 nM) | Inhibition rate (%) ([1]; 50 nM) | Inhibition rate (%) ([1]; 100 nM) | Inhibition rate (%) ([1]; 1 μM) | Inhibition rate (%) ([1]; 10 μM) | Inhibition rate (%) ([1]; 50 μM) | Inhibition rate (%) ([1]; 100 μM) | Fluorescence intensity (293T cells; 2 nM) | Fluorescence intensity (293T cells; 5 nM) | Fluorescence intensity (293T cells; 10 nM) | Fluorescence intensity (293T cells; 50 nM) | Fluorescence intensity (293T cells; 100 nM) | Fluorescence intensity (293T cells; 1 uM) | Fluorescence intensity (293T cells; 10 uM) | Fluorescence intensity (293T cells; 50 uM) | Fluorescence intensity (293T cells; 100 uM) | inhibition at 0.002 µM ([1]; 2 nM) [%] | inhibition at 0.005 µM ([1]; 5 nM) [%] | further results
1 | CCCCCCCCCC(=O)O [N-decanoic acid] | 35.04 ± 2.04 | 31.86 ± 2.23 | 66.11 ± 2.33 | 75.38 ± 2.03 | 75.54 ± 4.00 | -32.33 ± 1.56 | -54.38 ± 4.38 | 41.08 ± 4.08 | 47.98 ± 3.09 | 131.26 ± 8.63 | 114.00 ± 11.2 | 94.34 ± 7.54 | 96.63 ± 6.99 | 143.94 ± 13.26 | 237.62 ± 17.5 | 147.74 ± 14.23 | 135.74 ± 15.2 | 127.34 ± 12.22 | – | – | –
2 | CCCCCCCCC(=O)O [Nonanoic acid] | – | – | – | – | – | – | – | – | – | 157.30 ± 7.06 | 176.50 ± 7.06 | 106.35 ± 4.65 | 98.90 ± 8.26 | 106.35 ± 5.06 | 243.20 ± 13.65 | 135.36 ± 11.03 | 64.86 ± 5.54 | 104.28 ± 10.25 | 42 ± 3.06 | 49.7 ± 1.56 | inhibition at 0.01 µM ([1]; 10 nM): 58.3 ± 4.02%; inhibition at 0.05 µM ([1]; 50 nM): 57.3 ± 1.66%; inhibition at 0.1 µM ([1]; 100 nM): 36.4 ± 2.33%; inhibition at 1 µM ([1]; 1 μM): -4.93 ± 0.23%; inhibition at 10 µM ([1]; 10 μM): 34.8 ± 3.06%; inhibition at 50 µM ([1]; 50 μM): 40.1 ± 1.23%; inhibition at 100 µM ([1]; 100 μM): 43.8 ± 4.38%
3 | C=CCCCCCCCCC(=O)[O-].[Na+] [Sodium undecylenate] | – | – | – | – | – | – | – | – | – | 135.63 ± 7.06 | 100.34 ± 8.06 | 89.79 ± 4.98 | 62.57 ± 3.60 | 57.18 ± 5.23 | 232.89 ± 12.26 | 325.29 ± 15.22 | 63.77 ± 3.37 | 58.70 ± 2.66 | 30.5 ± 2.36 | 22.1 ± 2.14 | inhibition at 0.01 µM ([1]; 10 nM): 53 ± 5.03%; inhibition at 0.05 µM ([1]; 50 nM): 56.3 ± 5.03%; inhibition at 0.1 µM ([1]; 100 nM): 53 ± 4.06%; inhibition at 1 µM ([1]; 1 μM): -7.39 ± 0.22%; inhibition at 10 µM ([1]; 10 μM): 40.2 ± 3.23%; inhibition at 50 µM ([1]; 50 μM): 71.4 ± 3.26%; inhibition at 100 µM ([1]; 100 μM): 54 ± 4.39%
4 | CCCCCC/C=C\CCCCCCCC(=O)OC(C)C(N)C(=O)O (stereo not drawn) [Threonine-c-9-hexadecanoic acid] | 56.47 ± 5.47 | 79.21 ± 5.22 | 60.86 ± 4.03 | 59.03 ± 1.64 | 68.64 ± 2.03 | 12.84 ± 1.03 | 34.49 ± 4.49 | 71.06 ± 4.08 | 78.34 ± 4.39 | – | – | – | – | – | – | – | – | – | – | – | –
5 | Cc1c(C)c2c(c(C)c1O)CCC(C)(CCCC(C)CCCC(C)CCCC(C)C)O2 (stereo not drawn) [Vitamin-E, Vitamin E] | – | – | – | – | – | – | – | – | – | 100.41 ± 4.43 | 86.35 ± 2.47 | 67.85 ± 1.43 | 46.81 ± 1.48 | 22.67 ± 0.03 | 417.43 ± 15.23 | 217.04 ± 7.44 | 87.50 ± 2.33 | 92.89 ± 5.33 | – | – | Inhibition rate (%) (HIV pseudovirus (18A-41); 2 nM): 55.66 ± 6.03%; Inhibition rate (%) (HIV pseudovirus (18A-41); 5 nM): 61.87 ± 5.06%; Inhibition rate (%) (HIV pseudovirus (18A-41); 10 nM): 70.04 ± 4.65%; Inhibition rate (%) (HIV pseudovirus (18A-41); 50 nM): 79.33 ± 5.89%; Inhibition rate (%) (HIV pseudovirus (18A-41); 100 nM): 89.99 ± 8.97%; Inhibition rate (%) (HIV pseudovirus (18A-41); 1 μM): -84.33 ± 6.36%; Inhibition rate (%) (HIV pseudovirus (18A-41); 10 μM): 4.16 ± 0.11%; Inhibition rate (%) (HIV pseudovirus (18A-41); 50 μM): 61.36 ± 8.64%; Inhibition rate (%) (HIV pseudovirus (18A-41); 100 μM, negative value = promotes infection): 58.98 ± 6.37%
6 | Ascorbic acid-undecanedioic acid | 36.88 ± 5.99 | 70.10 ± 2.01 | 71.74 ± 5.03 | 67.01 ± 5.59 | 74.96 ± 2.33 | 32.33 ± 2.37 | 44.08 ± 1.28 | 83.56 ± 4.03 | 73.01 ± 4.05 | – | – | – | – | – | – | – | – | – | – | – | –
